In ChEMBL document CHEMBL1149560, “Discovery of a potent CDK2 inhibitor with a novel binding mode, using virtual screening and initial, structure-guided lead scoping” (Bioorg Med Chem Lett, 2007) one finds IC50, GI50 and inhibition data, which are given here for twelve compounds.

pIC50: −log10 of the molar value.

For experiment [1], the target named is Cyclin-dependent kinase 2 (Homo sapiens, UniProt P24941). The experiment in a line: Inhibition of CDK2.
For experiment [2], the target named is Glycogen synthase kinase-3 beta (Homo sapiens, UniProt P49841). The experiment can be described thus: Inhibition of GSK3-beta.
Experiment [3] deals with HCT-116. The experiment in a line: Antiproliferative activity against HCT116 cells by SRB assay after 72 hrs. Format: functional. The settings on record: Homo sapiens, HCT-116, 72 h. A general note: The SRB assay estimates cell density from bound dye.
The target in experiment [4] is T1, Serine/threonine-protein kinase Chk1 (Homo sapiens) (UniProt O14757).
T1 sequence (whole entry): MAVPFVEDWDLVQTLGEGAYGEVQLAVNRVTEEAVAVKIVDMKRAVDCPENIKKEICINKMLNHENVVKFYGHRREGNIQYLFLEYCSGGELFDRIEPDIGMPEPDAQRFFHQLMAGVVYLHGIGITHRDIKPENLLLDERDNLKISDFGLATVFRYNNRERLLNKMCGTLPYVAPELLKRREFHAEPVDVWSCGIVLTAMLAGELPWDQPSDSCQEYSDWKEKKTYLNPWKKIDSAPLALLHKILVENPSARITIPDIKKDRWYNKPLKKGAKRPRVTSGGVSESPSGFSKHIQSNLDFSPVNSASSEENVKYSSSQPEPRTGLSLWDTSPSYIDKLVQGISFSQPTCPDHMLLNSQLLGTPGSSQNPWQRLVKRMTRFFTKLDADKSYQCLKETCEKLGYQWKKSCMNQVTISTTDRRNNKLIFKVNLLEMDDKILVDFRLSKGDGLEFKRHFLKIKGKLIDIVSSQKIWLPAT
The experiment can be described thus: Inhibition of Chk1 at 50 uM.

Experiment [5] is described as follows: Inhibition of PKA. Set-up: species or system Homo sapiens.
Experiment [6] addresses RAC-alpha serine/threonine-protein kinase (Homo sapiens) (UniProt P31749). The experiment can be described thus: Inhibition of AKT at 10 uM.

Sequence of Glycogen synthase kinase-3 beta (P49841 whole entry): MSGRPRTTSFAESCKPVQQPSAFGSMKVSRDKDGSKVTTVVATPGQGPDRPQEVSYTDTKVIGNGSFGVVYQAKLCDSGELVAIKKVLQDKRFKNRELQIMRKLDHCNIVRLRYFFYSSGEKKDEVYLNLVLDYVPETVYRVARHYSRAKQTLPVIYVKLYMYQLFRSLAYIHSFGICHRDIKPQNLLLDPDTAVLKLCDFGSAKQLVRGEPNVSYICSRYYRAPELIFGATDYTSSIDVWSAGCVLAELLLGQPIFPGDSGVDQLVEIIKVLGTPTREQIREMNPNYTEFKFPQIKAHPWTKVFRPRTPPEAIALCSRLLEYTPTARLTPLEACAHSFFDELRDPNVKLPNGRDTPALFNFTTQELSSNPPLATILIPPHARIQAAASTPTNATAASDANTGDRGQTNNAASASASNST
Sequence of RAC-alpha serine/threonine-protein kinase (Homo sapiens) (P31749 whole entry): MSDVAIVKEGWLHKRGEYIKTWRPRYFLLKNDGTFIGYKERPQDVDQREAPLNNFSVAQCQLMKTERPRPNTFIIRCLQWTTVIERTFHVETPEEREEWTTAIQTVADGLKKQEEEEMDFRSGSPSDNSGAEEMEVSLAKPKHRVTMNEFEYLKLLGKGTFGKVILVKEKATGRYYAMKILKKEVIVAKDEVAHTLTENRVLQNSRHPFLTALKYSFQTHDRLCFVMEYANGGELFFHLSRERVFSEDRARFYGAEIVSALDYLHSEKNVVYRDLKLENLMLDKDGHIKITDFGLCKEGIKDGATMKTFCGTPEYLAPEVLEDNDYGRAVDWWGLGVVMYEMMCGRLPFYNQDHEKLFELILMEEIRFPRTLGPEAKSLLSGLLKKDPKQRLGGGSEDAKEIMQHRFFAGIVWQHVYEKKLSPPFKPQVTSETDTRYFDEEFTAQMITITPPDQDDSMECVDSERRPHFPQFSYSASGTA

For `N=C1NC(=O)/C(=C/c2ccc(-c3ccc(S(=O)(=O)N4CCOCC4)cc3)o2)S1`, the pIC50 (as a rule, the IC50 on a negative log10 scale, so that one unit is a factor of ten) in experiment [1] was 3.82.

As to `CNS(=O)(=O)c1ccc(-c2ccc(/C=C3\SC(=N)NC3=O)o2)cc1`, the pIC50 in experiment [2] was 7.10. Further, in experiment [3], the GI50 (usually the concentration giving 50% growth inhibition) was more than 80 µM.

On to `N=C1NC(=O)/C(=C/c2ccc(-c3ccc(S(N)(=O)=O)c(C(F)(F)F)c3)o2)S1`, for which the pIC50 in experiment [2] is 8.70. The compound also registered a GI50 in experiment [3] of more than 80 µM.

In experiment [3], `NS(=O)(=O)c1ccc(-c2ccc(/C=C3\SC(=O)NC3=O)o2)cc1` registered a GI50 of more than 80 µM.

In the case of `N=C1NC(=O)/C(=C/c2ccc(-c3ccc(S(N)(=O)=O)c(Cl)c3)o2)S1`, the pIC50 in experiment [2] was 7.85; in experiment [1] it was 6.24. This compound showed a GI50 in experiment [3] of more than 80 µM.

`CN(C)CCNS(=O)(=O)c1ccc(-c2ccc(/C=C3\SC(=N)NC3=O)o2)cc1`: the figures for the pIC50 in experiment [2] and in experiment [1] were 6.29 and 6.24, respectively. The compound further had a GI50 in experiment [3] of more than 80 µM.

Compound `N=C1NC(=O)/C(=C/c2ccc(-c3ccccc3[N+](=O)[O-])o2)S1` showed a pIC50 in experiment [1] of 4.72. Also, the GI50 in experiment [3] is more than 80 µM.

Consider `N=C1NC(=O)/C(=C/c2ccc(-c3ccc(C(=O)O)cc3)o2)S1`, for which, in experiment [3], the GI50 was more than 80 µM.

As for `C/C(=C1/SC(=N)NC1=O)c1ccc(-c2ccc(S(N)(=O)=O)cc2)o1`, in experiment [2], the pIC50 is 6.37. In experiment [3], this compound yielded a GI50 of more than 80 µM.

`N=C1NC(=O)/C(=C/c2ccc(-c3ccc(S(=O)(=O)N4CCNCC4)cc3)o2)S1` gave a pIC50 in experiment [1] of 5.54. This compound displayed a GI50 in experiment [3] of more than 80 µM.

`N=C1NC(=O)/C(=C/c2ccc(-c3ccc(C(N)=O)cc3)o2)S1`: the negative logarithm of the IC50 (pIC50) in experiment [1] is 5.03. The GI50 in experiment [3] is more than 80 µM.

As for `N=C1NC(=O)/C(=C/c2ccc(-c3ccc(S(N)(=O)=O)cc3)o2)S1`, the pIC50 in experiment [2] was 6.60; in experiment [5] it was 4.11. The inhibition (commonly the change of the read-out against control, counted positive when it falls) in experiment [4] was found to be 44%; in experiment [6] it was 54%. For the same compound, the GI50 in experiment [3] was more than 80 µM.
